In PMC6987146, “Potent inhibition of HIV replication in primary human cells by novel synthetic polyketides inspired by Aureothin” (Scientific Reports, 2020):

Key:
[1] = CellTiter-Glo 2.0 cell viability assay in PBMC; assay type: cell-based, human; settings: human
Experimental: (§1) The following assays were used to profile cell safety of compound treatment in HIV-exposed cultures (LC5-RIC or PBMC): (1) CellTox^TM Green Cytotoxicity Assay, Promega, measures binding of a fluorescent dye to DNA of cells with impaired membrane integrity; (2) CellTiter-Glo® 2.0 Assay, Promega, which measures the amount of ATP in viable cells after lysis using an assay with luminescence read-out. Cells were plated into black 96-well plates followed by overnight incubation at 37 °C, 5% CO2. Compounds dissolved in DMSO were screened at multiple concentrations from 0.6 to 10,000 nM at a final DMSO concentration of 0.04% followed by additional 48 h incubation. Both assays were performed according to manufacturer’s recommendations and consecutively in the above mentioned order. Cells were washed once with PBS between the assays.

[2] = test system: DsRed1 reporter gene activated by early viral gene expression; assay: DsRed1 reporter gene expression in HIV-exposed LC5-RIC cultures (first step of two-step assay); assay type: cell-based, HIV-1; design: unit not given here; settings: 50 nM, 48 h
Text: The reporter gene in LC5-RIC cells contains the HIV promoter and other regulatory elements of HIV expression and is activated by early viral gene expression during HIV infection. Use of LC5-RIC cells in a previously described two-step assay format allows comparison of the effect of compound treatment on expression of the DsRed1 reporter gene and infectious virus production in the same cultures. As reference compound, we used an experimental inhibitor of HIV transcription called Flavopiridol. Flavopiridol blocks pTEFb, an essential co-factor for Tat-dependent activation[18],[19]. […]
Figure 2 Comparison of effects of compound #7 treatment on reporter gene expression and production of infectious virus in LC5-RIC cultures. […] Effects of compound treatment on reporter gene expression and production of infectious virus were determined in LC5-RIC cultures exposed to virus inoculum in the presence or absence of compounds for 48 h. Fluorescent signals of these primary cultures were measured to determine effects on reporter gene expression. Effects on infectious virus production were determined by transferring aliquots of the supernatants of primary cultures to uninfected LC5-RIC cells, and fluorescent signals determined in secondary plates 72 h after transfer. […]

[3] = CellTiter-Glo 2.0 cell viability assay in LC5-RIC cells; assay type: cell-based; settings: human; Table S2; CellTiter-Glo 2.0; mean ± SD
Experimental: as §1

[4] = test system: HIV-1 transcripts (unspliced, singly spliced, multiply spliced, all); assay: Relative levels of HIV-1 transcript classes by qRT-PCR in LC5-RIC cells; assay type: cell-based; settings: HIV-1LAI, 48 h, vs untreated
Experimental: LC5-RIC cells were plated, treated with compounds and inoculated with virus as described for Alu-PCR above. Cells were then harvested and RNA was extracted using the RNeasy Mini Kit (QIAGEN), according to the manufacturer’s protocol. For cDNA synthesis, 1 µg of total RNA was reverse transcribed by SuperScript II reverse transcriptase (Invitrogen) according to manufacturer’s recommendations. qRT-PCR was performed with the Roche Light Cycler® 480II 96 (Version 1.5.0.39), using LightCycler® 480 SYBR Green I Mastermix (Roche). Quantitative PCR for HIV-1 transcripts was performed with primers specific for unspliced, singly spliced or multiply spliced HIV-1 transcripts as well as for ‘all HIV transcripts’; RNA Polymerase II transcripts were analysed as internal reference gene. Primer sequences are given in Supplementary Methods and binding sites shown in Supplementary Fig. S3. Data was analysed with the second derivative maximum method. The relative amount of HIV-1 transcripts in treated versus untreated samples was calculated by the 2^(−ΔΔCt) method, using RNA polymerase II as reference gene.
The following primers were used to perform the qRT-PCR analysis (primer sequences 5’ ? 3’): multiply spliced, forward: ATGGAGCCAGTAGATCCTAG, reverse: AGT CTC TCA AGC GGT GGT ^1; singly spliced, forward: GGc GGC GAC TGG AAG AGG C, reverse: CTATGATTACTATGGACCACA ^1; unspliced, forward: CTG AAG CGC GCA CGG CAA, reverse: GACGCTCTCGCACCCATCTC ^1; ‘all HIV transcripts’, forward: GTGTGTGGTAGATCCACAGATCAAGG, reverse: CCAGTCACACCTCAGGTACCTTTAAGACC ^2; RNA polymerase II, forward: GCA CCA CGT CCA ATG ACA T, reverse: GTG CGG CTG CTT CCA TAA ^3. See primer binding sites in different HIV transcripts in Fig. S1.

[5] = test system: integrated proviral HIV-1 DNA; assay: Integrated proviral HIV-1 DNA by Alu-PCR in LC5-RIC cells; assay type: cell-based; settings: HIV-1LAI, 48 h, concentrations >2x IC90, normalized to DMSO
Experimental: Quantitative analysis of integrated copies of HIV proviral DNA by Alu-PCR was performed essentially as described in[46]. Briefly, LC5-RIC cells seeded at a density of 100,000 cells per well in 12-well plates and incubated for 24 h were exposed to test compounds and HIV-1LAI virus inoculum at an MOI of 0.5 and incubated for further 48 h at 37 °C, 5% CO2. Subsequently, cells were harvested and genomic DNA (gDNA) was extracted using the QIAamp DNA Mini Kit (QIAGEN) according to the manufacturer’s protocol. The relative amount of integrated proviral HIV-1 DNA was determined by two-step Alu-PCR[46]. The relative amounts of integrated proviral HIV-1 DNA in treated versus untreated samples were calculated by the 2^(−ΔΔCt) method, with ΔCT values representing CT (HIV) - CT (β-globin) for each sample and ΔΔCT values representing values of treated samples normalized to untreated samples.

SMILES	CC50 at 48 h [1]	Reporter gene expression, median (fluorescent signal normalized to untreated virus-exposed cultures) [2]	CC50 at 48 h [3]	relative levels of multiply spliced HIV transcripts [4]	reduction of levels of integrated proviral DNA [5]	CC50 at 48 h ([1]; CellTiter-Glo 2.0, PBMC, read-out: Cell viability in PBMC, CC50)	levels of singly spliced HIV transcripts [4]	levels of unspliced HIV transcripts [4]	overall abundance of HIV mRNAs (all transcripts primers) [4]
CN1CC[C@H](c2c(O)cc(O)c3c(=O)cc(-c4ccccc4Cl)oc23)[C@H](O)C1 [Flavopiridol]	120 ± 13.5 nM	9.33	127.4 ± 0.94 nM	much stronger inhibitory effect on levels of multiply spliced transcripts than compound #7	did not reveal reduction of proviral DNA levels				
COc1oc(C2C/C(=C/C(C)=C/c3ccc(C(F)(F)F)cc3)CO2)c(C)c(=O)c1C (stereo not shown) [compound #7]		55.3	> 10000 nM	did not reduce relative levels of multiply spliced transcripts	< 20%	> 10000 nM	strongly diminished	strongly diminished	reduced the overall abundance of HIV mRNAs
